Laboratory results reported in paper PMC9818021, “Targets, Mechanisms and Cytotoxicity of Half-Sandwich Ir(III) Complexes Are Modulated by Structural Modifications on the Benzazole Ancillary Ligand” (Cancers, 2022).
“Also recorded” adds a separate entry of the source.

What was measured:
Qualitative solubility = type: physicochemical; settings: 1-2 mg, solvent up to 1 mL
Description: Solubility. The solubility of the complexes was qualitatively assessed. Different solvents were added drop-by-drop while shaking to a small amount of complex (around 1–2 mg) in a vial until the solvent added exceeded 1 mL. Afterwards, it was checked if the solid was or not completely dissolved and/or if the solution got coloured.

Calf thymus DNA [1] = experiment: Kinetics of covalent binding to DNA (UV-vis, NMR); settings: for Covalent binding to DNA: UV-Vis and NMR; for kc x 103 (rate constant of covalent binding to DNA): values are kc x 103, CP/CD = 20
Description: Materials. The iridium chloride salt (IrCl3·nH2O) was purchased from Johnson Mattey. The ligands 2-phenylbenzimidazole, 2-(2′-pyridylbenzimidazole), 2-(2′-aminophenylbenzimidazole), 2-(2′-aminophenylbenzothiazole), 2-(2′-hydroxyphenylbenzimidazole) and 2-(2′-hydroxyphenylbenzothiazole) were purchased from Sigma-Aldrich. The ligands 2-phenyl-N-methyl-benzimidazole and 2-(2′-pyridyl)l-N-methyl-benzimidazole were prepared according to slightly modified reported protocols. Deuterated solvents were obtained from SDS and Euriso-top. Unless otherwise specified, all the biological reagents were purchased from Merck Life Science S.L.U., Madrid, Spain. Calf thymus DNA provided as a highly polymerized lyophilized sodium salt was dissolved into doubly-deionized water and sonicated with an MSE-Sonyprep sonicator to reduce the polymer length at approximately 1000 base-pairs. The molar DNA concentration in base pairs, ε (260 nm) = 13,200 M^−1 cm^−1 [49], will be expressed as CP. BSA was supplied as crystallized and lyophilized powder (≥98%, agarose gel electrophoresis and ≤0.005% fatty acids); the BSA concentration of the stock solutions was spectrophotometrically determined as ε (278 nm) = 45,000 M^−1 cm^−1. All aqueous solutions were prepared with MilliQ-grade water using a Direct-Q8UV system from Millipore (Millipore Ibérica S.A., Madrid, Spain). All solvents were of analytical grade. The chemical studies were carried out in aqueous solutions at 25 °C, I = 2.5 mM sodium cacodylate (NaCaC) and pH between 6.0 and 7.1 unless other conditions are stated. All buffers with the biological components were of biological grade and used as received.
The UV-vis measurements were performed with a Hewlett-Packard 8453A (Agilent Technologies, Palo Alto, CA, USA) photodiode array spectrophotometer with a Peltier temperature control system. Titrations were carried out at 25 °C by adding increasing amounts of DNA solution to the iridium complex solution. The pKa values were measured by analysing the absorbance change of iridium complex solutions recorded at different pH values. The melting experiments were carried out using a DNA solution varying the CIr-complex/CDNA (CD/CP) ratio from 0 to 1, keeping CP constant and recording the absorbance spectra while heating from 25 to 90 °C at 0.3 °C/min.
The slow kinetic measurements were performed with the previous spectrophotometer while the fast kinetic measurements were performed in a stopped flow Bio-Logic SFM-300 spectrophotometer with an absorbance detection system and dead time below 3 ms. The kinetic curves, obtained averaging out at least five shots, were analysed with the Jandel (AISN software, Mapleton, OR) fitting package.
2 - Interaction wit h DNA
Aquo- complexes bind DNA(N7) more easily than their chlorido analogous[1],[2].
complexes were incubated overnight until the aquation process i s co m ple t ed. Water-insoluble
compounds were firstly dissolved in DMSO and then diluted in water.
From the fitting of absorbance-time graphs (Figure S8 ) to a biexponential analysis, two rate
constants were obtained. The fast reaction could be related to covalent binding, being k c t he
to DNA/Ir-complex rearrangements, so it was disregarded.
0. 174 3 [ N, NH] 4 [ N, NMe ]
Figure S13. Biexponential kinetic curves of DNA with A) 3[N,NH] CD = 1.0 3×1 0-5 M, B) 4[N,NMe] CD =
M, F) 8[CO,S] C D = 9.4 0×1 0- 6 M. CP/CD = 20.
Table S10. Rate constants for the covalent binding between the complexes and DNA.
The formation of covalent DNA/Ir-complex product (PD), can be represented according to the
where P represents the polynucleotide DNA and D the Iridium -metal complexes. Henceforth, CD
and CP stand for the analytical D and P concentrations, respectively.
Nevertheless, we observed that for each complex, the kc values remained essentially constant
with the increment of CP (Figure S9 ), proving that the reaction is monomolecular. Therefore, PD […]

[2] = test system: ROS (superoxide anion, hydrogen peroxide); experiment: ROS generation (DHE and H2DCFDA, flow cytometry); type: cell-based; settings: after 3 h
Description: Specific assays with 1[C,NH] complex were performed according to manufacturer’s instructions using the following reagents from Molecular Probes (Thermo Fisher Scientific): Measurements of ROS: Dihydroethidium (DHE, D11347) and 2′, 7′-dichlorodihydrofluorescein diacetate (H2DCFDA, D399); detection of caspases 3/7: CellEvent Caspase-3/7 Green Detection Reagent (C10423); Cell viability: Live/Dead Cell Imaging Kit (R37601); Analysis of cytosolic calcium concentration: Fluo3/AM (F23915); Analysis of MMP: Tetramethylrhodamine methyl ester perchlorate (TMRM, T668). RT-qPCR’s assays were performed with the following primers/probes from Thermo Fisher Scientific: DCP1A (Hs00218198-m1), FOSB (Hs00171851-m1), EGR1(Hs0015928-m1), ATF3 (Hs00231069-m1), DDIT3 (Hs00358796-g1), PP1R15A (Hs00169585-m1), CHAC1(Hs00225520-m1), MIR9-1 (Hs04231512-s1), ATP1B2 (Hs00155922-m1), BBC3 (Hs00248075-m1), BCL2L11 (Hs00798019-s1), PMAIP1 (Hs00560402-m1), SKP2 (Hs01021864-m1) and HIST1H1B (Hs00271207-s1). RT-qPCR experiments were performed as described.

Calf thymus DNA [3] = experiment: DNA viscosity measurements; type: binding; settings: as a function of CD/CP, overnight incubation
Description: Viscosity measurements were performed using a Micro-Ubbelohde viscometer whose temperature was controlled externally (25 ± 0.1 °C). The flow time was measured with a digital stopwatch. Mean values of triplicated measurements were taken to evaluate the DNA viscosity in the absence (η0) and in the presence, (η) of iridium complexes. The viscosity readings were expressed as L/L0 = (η/η0)^1/3 versus the CD/CP ratio. The data was analysed using […] where t0 and tDNA are the buffer and polynucleotide solution flow times, respectively, whereas t is the flow time of the Ir-complex/DNA mixture after the stabilization period.

SMILES	Covalent binding to DNA (Calf thymus DNA [1])	kc x 103 (rate constant of covalent binding to DNA) (Calf thymus DNA [1]) [s-1]	DHE fluorescence (superoxide anion levels) [2]	Relative viscosity of DNA (L/L0) (Calf thymus DNA [3])	other results
Cc1c(C)c(C)[c-](C)c1C.Cn1c2[n+](c3ccccc31)[Ir]([Cl])[n+]1ccccc1-2.[Cl-] [4[N,NMe], [(η^5-Cp*)IrCl(κ^2-N,N-pyMebim)]Cl]	able to covalently bind DNA	16 ± 1			Solubility in water (Qualitative solubility; listed as 4[N,NMe-Cl]): soluble in water; Solubility in water (Qualitative solubility; listed as 4[N,NMe-Cl]+): water-soluble
Cc1c(C)c(C)[c-](C)c1C.[Cl-].[Cl][Ir]1[NH2+]c2ccccc2-c2[nH]c3ccccc3[n+]21 [5[CNH2,NH], [(η^5-Cp*)IrCl(κ^2-N,N-apbim)]Cl]	able to covalently bind DNA	3.9 ± 0.1			Solubility in water (Qualitative solubility; listed as 5[CNH2,NH-Cl]): soluble in water; Solubility in water (Qualitative solubility; listed as 5[CNH2,NH-Cl]+): water-soluble
Cc1c(C)c(C)[c-](C)c1C.[Cl][Ir]1[O]c2ccccc2-c2sc3ccccc3[n+]21 [8[CO,S], [(η^5-Cp*)IrCl(κ^2-O,N-hpbtz)]]	able to covalently bind DNA	6.0 ± 0.2	increased		Solubility in water (Qualitative solubility; listed as 8[CO,S-Cl]): insoluble in water; also recorded: soluble in DMSO, but not in water
Cc1c(C)c(C)[c-](C)c1C.Cn1c2[n+](c3ccccc31)[Ir]([Cl])[c]1ccccc1-2 [2[C,NMe], [(η^5-Cp*)IrCl(κ^2-N,C-NMepbim)]]	ruled out		increased	No variations	Solubility in water (Qualitative solubility; listed as 2[C,NMe-Cl]): insoluble in water; also recorded: soluble in DMSO, but not in water
Cc1c(C)c(C)[c-](C)c1C.[Cl-].[Cl][Ir]1[NH2+]c2ccccc2-c2sc3ccccc3[n+]21 [6[CNH2,S], [(η^5-Cp*)IrCl(κ^2-N,N-apbtz)]Cl]	able to covalently bind DNA	6.4 ± 0.2			Solubility in water (Qualitative solubility): water-soluble
Cc1c(C)c(C)[c-](C)c1C.[Cl][Ir]1[c]2ccccc2-c2[nH]c3ccccc3[n+]21 [1[C,NH], [(η^5-Cp*)IrCl(κ^2-N,C-pbim)]]	ruled out		increased	No variations	Solubility in water (Qualitative solubility; listed as 1[C,NH-Cl]): insoluble in water; also recorded: soluble in DMSO, but not in water
Cc1c(C)c(C)[c-](C)c1C.[Cl-].[Cl][Ir]1[n+]2ccccc2-c2[nH]c3ccccc3[n+]21 [3[N,NH], [(η^5-Cp*)IrCl(κ^2-N,N-pybim)]Cl]	able to covalently bind DNA	20 ± 2		drastically declined	Solubility in water (Qualitative solubility; listed as 3[N,NH-Cl]): soluble in water; Solubility in water (Qualitative solubility; listed as 3[N,NH-Cl]+): water-soluble
Cc1c(C)c(C)[c-](C)c1C.[Cl][Ir]1[O]c2ccccc2-c2[nH]c3ccccc3[n+]21 [7[CO,NH], [(η^5-Cp*)IrCl(κ^2-O,N-hpbim)]]	able to covalently bind DNA	3.7 ± 0.1			Solubility in water (Qualitative solubility; listed as 7[CO,NH-Cl]): insoluble in water; also recorded: soluble in DMSO, but not in water
